Data set [1] addresses T1, PSMA (Homo sapiens, UniProt Q04609).
T1 construct: PSMA-positive LNCaP cells from Sigma-Aldrich; host or cells: LNCaP cells
Put plainly: competitive radioligand assay on PSMA-positive LNCaP cells (Ki). It is filed as binding. As to the method: By means of comparative radioligand assays, binding affinity for PSMA is determined for the radiotracer or labeling precursor DOTA.L-Lys(SA.Pam)KuE-617 and reference structures. The Ki-value for [^natLu]Lu-DOTA.L-Lys(SA.Pam)KuE-617 corresponds roughly to the value for the labeling precursor DOTA.L-Lys(SA.Pam) KuE-617. […] Compared to DOTA.L-Lys.KuE-617—corresponding to structural formula (14) in scheme 31—the Ki of [^natLu]Lu-DOTA.L-Lys(SA.Pam)KuE-617 is greater by a factor of about 2. It can be seen from this that the squaric acid-pamidronate group reduces affinity for PSMA.
Non-active (cold) [natLu]Lu complexes are prepared by shaking a solution containing the labeling precursor DOTA-L-Lys(SA.Pam)-KuE-617 (371 μl, 1 mg/ml, 250 nmol) with LuCl3 (129 μl, 1 mg/ml, 375 nmol, metal to labeling precursor ratio 1.5:1) in 1 M ammonium acetate buffer at 95° C. for 2 hours. Complex formation is monitored by ESI-LC/MS.
PSMA binding affinity is determined by the competitive radioligand assay described by Benešová et al. (Benešová, M.; Schaefer, M.; Bauder-Wüst, U.; Afshar-Oromieh, A.; Kratochwil, C.; Mier, W.; Haberkorn, U.; Kopka, K.; Eder, M. Preclinical Evaluation of a Tailor-Made DOTA-Conjugated PSMA Inhibitor with Optimized Linker Moiety for Imaging and Endoradiotherapy of Prostate Cancer. J. Nucl. Med. 2015, 56 (6), 914-920.). For this purpose, PSMA-positive LNCaP cells from Sigma-Aldrich in RPMI 1640 (Thermo Fisher Scientific) supplemented with 10% fetal bovine serum (Thermo Fisher Scientific), 100 μg/ml streptomycin and 100 units/ml penicillin are cultured at 37° C. in 5% CO2. The LNCaP cells are incubated with increasing concentrations of solutions containing the labeling precursors in the presence of 0.75 nM [^68Ga]Ga-PSMA-10 for 45 min. Free radioactivity is removed by several washes with ice-cold PBS. The samples obtained are measured in a y counter (2480 WIZARD2 Automatic Gamma Counter, PerkinElmer). The measurement data are evaluated in GraphPad Prism 9 using non-linear regression.

The target in data set [2] is T1, PSMA. Put plainly: cell-based competitive assay on LNCaP cells (PSMA affinity, IC50). The format is binding. As to conditions: 45 min, 68Ga-labeled PSMA reference compound. From the text:
Using a cell-based assay, the affinity of the KuE targeting vector with a lipophilic linker—analogously to PSMA-617—and with a squaric acid linker was examined using the compounds NH2.DOTAGA.KuE-617 and NH2.DOTAGA.QS.KuE (structural formulae (8) and (10) in scheme 32).
For the assay, LNCaP cells were pipetted into multiwell plates (Merck Millipore Multiscreen™). To the compounds to be analyzed, in increasing concentrations, was in each case added a defined amount or concentration of the reference compound ^68Ga[Ga]PSMA-with known Kdvalue, and the mixture was incubated in the wells with the LNCaP cells for 45 min. After washing several times, the cell-bound activity was determined.
In order to determine non-specific binding, an excess of the PSMA inhibitor 2-PMPA (2-(phosphonomethyl)[…]) was additionally added to all compounds, and they were subjected to the same LNCaP assay-as described above.

Data set [3] is described as follows: adsorption isotherms on hydroxyapatite by the method of Langmuir and Freundlich. It is filed as binding. Conditions: Langmuir-Freundlich. As for the experimental part: For this purpose, the adsorption therms are determined by the method of Langmuir and Freundlich.
For comparison, schemes 23 and 24 show conjugates of the chelator NODAGA with squaric acid pamidronate (NODAGA.QS.Pam) and NODAGA with zoledronate (NODAGA.Zol), and also the respective coefficients of adsorption KLF, measured by the method of Langmuir and Freundlich.

Data set [4] can be described thus: lipophilicity, partition in n-octanol and PBS. It is filed as physicochemical. As to conditions: pH 7.4. As for the experimental part:
The lipophilicity of […] is determined by determining the partition equilibrium of the compound in a mixture of n-octanol and PBS.
LogD7.4 of the respective compound is determined via the partition coefficient in n-octanol and PBS. The labeling solution is adjusted to pH 7.4 and 5 MBq is diluted in 700 μl of n-octanol and 700 μl of PBS. It is shaken at 1500 rpm for 2 min and then centrifuged. 400 μl of the n-octanol phase and 400 μl of the PBS phase were each transferred to a new Eppendorf tube. 3-6 μl is then pipetted onto a TLC plate and analyzed using a phosphor imager. The logD7.4 is calculated based on the ratio of the activities of the two phases. The measurement of each phase is also repeated twice more with the sample of higher activity, such that three logD7.4 values can be obtained and an average can be calculated.

Data set [5] is described as follows: affinity for hydroxyapatite (HAP) of 177Lu-labeled compounds. As to conditions: ordinary HAP, 1 h room temperature. The format is binding. As to the method: Calcium-containing crystalline hydroxyapatite is an essential component of mammalian bones and is suitable as a model substrate for the in vitro study of bisphosphonate accumulation in healthy bone tissue and bone metastases. […] In contrast, […] is found to have an HAP-enriched fraction of only 1.2%. In order to determine selectivity, accumulation on HAP previously treated with excess pamidronate was additionally measured.
Hydroxyapatite (20 mg) is incubated in saline (1 ml) for 24 h. 50 μl of the radiotracer [^177Lu]Lu-DOTA-L-Lys(SA.Pam)-KuE-617 (5 MBq) or [^177Lu]Lu-PSMA-617 (5 MBq) is added. Each suspension is vortexed with a vortex mixer for 20 s and incubated at room temperature for 1 h. […] The radioactivity of the liquids and HAP-containing supernatants obtained is measured in each case with a curiemeter (Isomed 2010 activimeter, MED Nuclear-Medizintechnik Dresden GmbH). The binding of [^177Lu]Lu-DOTA-L-Lys(SA.Pam)-KuE-617 and [^177Lu]Lu-PSMA-617 is determined as a percentage of the activity absorbed on HAP. As a reference, the HAP binding of free Lu-177 is measured in an analogous manner. […] For this purpose, HAP (20 mg) in saline solution (1 ml) is incubated with pamidronate (100 mg) and the respective activities of [^177Lu]Lu-DOTA-L-Lys(SA.Pam)-KuE-617 and free Lu-177 are determined.

The mark [6] stands for this setting: LNCaP cells, 0.75 nM [68Ga]Ga-PSMA-10, 45 min, read-out: PSMA Ki.

Like-named read-outs stand apart in the source and are kept apart here.

T1 sequence (Q04609 whole entry): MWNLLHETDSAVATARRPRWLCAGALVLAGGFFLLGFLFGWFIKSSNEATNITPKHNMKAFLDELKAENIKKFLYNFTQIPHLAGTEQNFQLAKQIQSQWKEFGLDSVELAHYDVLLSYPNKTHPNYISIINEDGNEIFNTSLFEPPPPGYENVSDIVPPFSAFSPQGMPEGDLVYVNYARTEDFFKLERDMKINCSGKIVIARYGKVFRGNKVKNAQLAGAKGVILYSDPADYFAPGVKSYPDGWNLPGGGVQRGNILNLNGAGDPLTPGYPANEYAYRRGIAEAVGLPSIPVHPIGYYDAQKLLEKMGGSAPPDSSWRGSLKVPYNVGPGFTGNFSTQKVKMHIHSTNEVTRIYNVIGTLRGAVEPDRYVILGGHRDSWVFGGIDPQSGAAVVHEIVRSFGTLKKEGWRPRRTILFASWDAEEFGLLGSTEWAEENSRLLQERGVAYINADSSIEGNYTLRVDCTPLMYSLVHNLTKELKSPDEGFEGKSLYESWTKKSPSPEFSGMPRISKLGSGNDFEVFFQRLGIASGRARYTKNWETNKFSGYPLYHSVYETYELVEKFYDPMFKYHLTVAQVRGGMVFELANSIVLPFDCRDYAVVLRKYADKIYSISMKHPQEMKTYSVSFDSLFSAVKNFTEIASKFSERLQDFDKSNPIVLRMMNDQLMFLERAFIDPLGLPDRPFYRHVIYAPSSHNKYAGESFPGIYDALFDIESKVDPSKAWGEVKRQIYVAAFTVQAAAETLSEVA

In general, Ki refers to the dissociation constant of the complex between target and ligand, obtained from inhibition or displacement. Turning to `O=C(O)CCC(NC(=O)NC(CCCCNC(=O)C(Cc1ccc2ccccc2c1)NC(=O)C1CCC(CNC(=O)C(CCCCNc2c(NCCC(O)(P(=O)(O)O)P(=O)(O)O)c(=O)c2=O)NC(=O)CN2CCN(CC(=O)O)CCN(CC(=O)O)CCN(CC(=O)O)CC2)CC1)C(=O)O)C(=O)O` [DOTA.L-Lys(SA.Pam)KuE-617], the affinity in data set [1], expressed as Ki, was 53 ± 4 nM.

Regarding `NCCCCC(NC(=O)CN1CCN(CC(=O)O)CCN(CC(=O)O)CCN(CC(=O)O)CC1)C(=O)NCC1CCC(C(=O)NC(Cc2ccc3ccccc3c2)C(=O)NCCCCC(NC(=O)NC(CCC(=O)O)C(=O)O)C(=O)O)CC1` [DOTA.L-Lys.KuE-617], the Ki in data set [1] (setting [6]) was found to be 20 ± 3 nM.

The IC50 is the point on the concentration scale where inhibition reaches its midpoint. `NCCN1CCN(CC(=O)O)CCN(C(CCC(=O)NCC2CCC(C(=O)NC(Cc3ccc4ccccc4c3)C(=O)NCCCCC(NC(=O)NC(CCC(=O)O)C(=O)O)C(=O)O)CC2)C(=O)O)CCN(CC(=O)O)CC1` (stereo not drawn) [NH2.DOTAGA.KuE-617] came in with an IC50 in data set [2] of 20.6 ± 3.4 nM.

`NCCN1CCN(CC(=O)O)CCN(C(CCC(=O)NCCNc2c(NCCCCC(NC(=O)NC(CCC(=O)O)C(=O)O)C(=O)O)c(=O)c2=O)C(=O)O)CCN(CC(=O)O)CC1` (stereo not drawn) [NH2.DOTAGA.QS.KuE] had an IC50 in data set [2] of 20.2 ± 3.5 nM.

Turning to `O=C(O)CN1CCN(CC(=O)O)CCN(C(CCC(=O)NCCNc2c(NCCC(O)(P(=O)(O)O)P(=O)(O)O)c(=O)c2=O)C(=O)O)CC1` (stereo not drawn) [NODAGA.QS.Pam], in data set [3], the “coefficient of adsorption KLF compared with NODAGA.Zol” value is reported as “about three times greater”.

Regarding `O=C(O)CCC(NC(=O)NC(CCCCNC(=O)C(Cc1ccc2ccccc2c1)NC(=O)C1CCC(CNC(=O)CN2CCN(CC(=O)O)CCN(CC(=O)O)CCN(CC(=O)O)CC2)CC1)C(=O)O)C(=O)O` (stereo not drawn) [PSMA-617, reference compound], the Ki in data set [1] (setting [6]) was 7 ± 1 nM.

In the case of `O=C(O)CCC(NC(=O)NC(CCCCNC(=O)C(Cc1ccc2ccccc2c1)NC(=O)C1CCC(CNC(=O)CCC(C(=O)O)N2CCN(CC(=O)O)CCN(CCNc3c(NCCC(O)(P(=O)(O)O)P(=O)(O)O)c(=O)c3=O)CCN(CC(=O)O)CC2)CC1)C(=O)O)C(=O)O` (stereo not drawn) [Pam.SA.DOTAGA.KuE-617], the 50% inhibitory concentration (IC50) in data set [2] came to 49.8 ± 10 nM.

In the case of [^177Lu]Lu-PSMA-617, the “LogD7,4 (n-octanol/PBS)” value in data set [4] is recorded as −2.2 ± 0.20. Besides, the “proportion bound to HAP” value in data set [5] is reported as 1.2%.

The values above are taken from US20240100201A1, “Labeling precursors and radiotracers for nuclear medicine diagnosis and therapy of prostate cancer-induced bone metastases” (SCV-SpezialChemikalienVertrieb GmbH, priority 2021, published 2024).
